# Columns and labels:
# [1] = test system: purple nutsedge; experiment: Test B pre/postemergence purple nutsedge; assay type: in vivo, Cyperus rotundus
# Method in brief: (§1)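 Herbicidal effect was estimated by eye on a ten-point control scale after plants spent twelve to sixteen days in a greenhouse following soil or foliar treatment. Foliar sprays targeted plants at one to four leaves; all doses were formulated in a non-phytotoxic solvent with surfactant.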
# [2] = test system: blackgrass; experiment: Test B pre/postemergence blackgrass; assay type: in vivo, Alopecurus myosuroides
# Method in brief: as §1
# [3] = test system: wheat; experiment: Test B pre/postemergence wheat; assay type: in vivo, Triticum aestivum
# Method in brief: as §1
# [4] = test system: cocklebur; experiment: Test B pre/postemergence cocklebur; assay type: in vivo, Xanthium strumarium
# Method in brief: as §1
# [5] = test system: soybean; experiment: Test B pre/postemergence soybean; assay type: in vivo, Glycine max
# Method in brief: as §1
# [6] = test system: wild oat; experiment: Test B pre/postemergence wild oat; assay type: in vivo, Avena fatua
# Method in brief: as §1
# [7] = test system: surinam grass; experiment: Test B pre/postemergence surinam grass; assay type: in vivo, Brachiaria decumbens
# Method in brief: as §1
# [8] = test system: bamyardgrass; experiment: Test B flood test barnyardgrass; assay type: in vivo, Echinochloa crus-galli
# Method in brief: (§2)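 Each value is a visual injury score relative to controls, with 10 meaning complete control and 0 no effect. Evaluation took place twelve to sixteen days after the 2-leaf-stage plants were treated and kept in the greenhouse.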
# [9] = test system: rape; experiment: Test B pre/postemergence rape; assay type: in vivo, Brassica napus
# Method in brief: as §1
# [10] = test system: bedstraw; experiment: Test B pre/postemergence bedstraw; assay type: in vivo, Galium aparine
# Method in brief: as §1
# [11] = test system: giant foxtail; experiment: Test B pre/postemergence giant foxtail; assay type: in vivo, Setaria faberii
# Method in brief: as §1
# [12] = test system: duck salad; experiment: Test B flood test duck salad; assay type: in vivo, Heteranthera limosa
# Method in brief: as §2
# [13] = test system: pigweed; experiment: Test B pre/postemergence pigweed; assay type: in vivo, Amaranthus retroflexus
# Method in brief: as §1
# [14] = test system: morningglory; experiment: Test B pre/postemergence morningglory; assay type: in vivo, Ipomoea hederacea
# Method in brief: as §1
# [15] = test system: velvetleaf; experiment: Test B pre/postemergence velvetleaf; assay type: in vivo, Abutilon theophrasti
# Method in brief: as §1
# [16] = test system: smallflower flatsedge; experiment: Test B flood test smallflower flatsedge; assay type: in vivo, Cyperus difformis
# Method in brief: as §2
# [17] = Preemergence, Rate 31 g/ha, visual rating, scale 0 to 10 (0 no effect, 10 complete control)
# [18] = Preemergence, Rate 62 g/ha, scale of 0 to 10 where 0 is no effect and 10 is complete control
# [19] = Preemergence, Rate 250 g/ha, scale of 0 to 10 where 0 is no effect and 10 is complete control
# [20] = Rate 31 g/ha, Postemergence, scale 0 to 10
# [21] = Rate 62 g/ha, Postemergence, scale 0 to 10, 0 no effect, 10 complete control
# [22] = Rate 125 g/ha, Postemergence, scale of 0 to 10 where 0 is no effect and 10 is complete control
# [23] = Rate 125 g/ha, Preemergence, scale of 0 to 10 where 0 is no effect and 10 is complete control
# [24] = Rate 250 g/ha, Postemergence, scale of 0 to 10 where 0 is no effect and 10 is complete control
# [25] = Rate 31 g/ha, Pre-emergence section (flood test species), scale 0 to 10
# [26] = Rate 62 g/ha, headed Pre-emergence (flood test species), scale 0 to 10 (0 no effect, 10 complete control)
# [27] = Rate 125 g/ha, Pre-emergence, flood test species, scale 0 to 10 where 0 is no effect and 10 is complete control
# [28] = Rate 250 g/ha, Pre-emergence, flood-test species, scale 0 to 10, 0 is no effect, 10 is complete control
smiles,measurement,setting,value
CC(Cl)=CCn1c(=O)on(C(=O)N(c2ccc(F)cc2)C(C)C)c1=O [Compound 285],Nutsedge plant response rating,[1]; [17],0
same,Nutsedge plant response rating,[1]; [18],0
same,Nutsedge plant response rating,[1]; [19],0
same,Nutsedge plant response rating,[1]; [20],0
same,Nutsedge plant response rating,[1]; [21],0
same,Nutsedge plant response rating,[1]; [22],0
same,Nutsedge plant response rating,[1]; [23],0
same,"Plant response rating, Nutsedge",[1]; [24],0
same,Blackgrass plant response rating,[2]; [17],0
same,Blackgrass plant response rating,[2]; [18],0
same,Blackgrass plant response rating,[2]; [19],5
same,Blackgrass plant response rating,[2]; [20],0
same,Blackgrass plant response rating,[2]; [21],0
same,Blackgrass plant response rating,[2]; [22],2
same,Blackgrass plant response rating,[2]; [23],4
same,"Plant response rating, Blackgrass",[2]; [24],7
same,Wheat plant response rating,[3]; [17],0
same,Wheat plant response rating,[3]; [18],0
same,Wheat plant response rating,[3]; [19],0
same,Wheat plant response rating,[3]; [21],0
same,Wheat plant response rating,[3]; [22],0
same,Wheat plant response rating,[3]; [23],0
same,"Plant response rating, Wheat",[3]; [24],0
same,Cocklebur plant response rating,[4]; [17],0
same,Cocklebur plant response rating,[4]; [18],0
same,Cocklebur plant response rating,[4]; [19],0
same,Cocklebur plant response rating,[4]; [20],0
same,Cocklebur plant response rating,[4]; [21],0
same,Cocklebur plant response rating,[4]; [22],0
same,Cocklebur plant response rating,[4]; [23],0
same,"Plant response rating, Cocklebur",[4]; [24],0
same,Soybean plant response rating,[5]; [17],0
same,Soybean plant response rating,[5]; [18],0
same,Soybean plant response rating,[5]; [19],0
same,Soybean plant response rating,[5]; [21],2
same,Soybean plant response rating,[5]; [22],2
same,Soybean plant response rating,[5]; [23],0
same,"Plant response rating, Soybean",[5]; [24],3
same,Wild oats plant response rating,[6]; [17],0
same,Wild oats plant response rating,[6]; [18],0
same,Wild oats plant response rating,[6]; [19],3
same,Wild oats plant response rating,[6]; [21],0
same,Wild oats plant response rating,[6]; [22],0
same,"Plant response rating, Wild oats",[6]; [24],0
same,B. signalgrass plant response rating,[7]; [17],0
same,B. signalgrass plant response rating,[7]; [18],2
same,B. signalgrass plant response rating,[7]; [19],10
same,B. signalgrass plant response rating,[7]; [20],0
same,B. signalgrass plant response rating,[7]; [21],0
same,B. signalgrass plant response rating,[7]; [22],0
same,B. signalgrass plant response rating,[7]; [23],5
same,"Plant response rating, B. signalgrass",[7]; [24],0
same,Barnyardgrass plant response rating,[8]; [25],0
same,Barnyardgrass plant response rating,[8]; [26],0
same,Barnyardgrass plant response rating,[8]; [27],0
same,Barnyardgrass plant response rating,[8]; [28],7
same,Rape plant response rating,[9]; [17],0
same,Rape plant response rating,[9]; [18],0
same,Rape plant response rating,[9]; [19],3
same,Rape plant response rating,[9]; [20],0
same,Rape plant response rating,[9]; [21],0
same,Rape plant response rating,[9]; [22],0
same,Rape plant response rating,[9]; [23],0
same,"Plant response rating, Rape",[9]; [24],0
same,Bedstraw plant response rating,[10]; [17],0
same,Bedstraw plant response rating,[10]; [18],0
same,Bedstraw plant response rating,[10]; [19],8
same,Bedstraw plant response rating,[10]; [20],0
same,Bedstraw plant response rating,[10]; [21],0
same,Bedstraw plant response rating,[10]; [22],5
same,Bedstraw plant response rating,[10]; [23],0
same,"Plant response rating, Bedstraw",[10]; [24],7
same,Giant foxtail plant response rating,[11]; [17],7
same,Giant foxtail plant response rating,[11]; [18],8
same,Giant foxtail plant response rating,[11]; [19],10
same,Giant foxtail plant response rating,[11]; [20],0
same,Giant foxtail plant response rating,[11]; [21],0
same,Giant foxtail plant response rating,[11]; [22],0
same,Giant foxtail plant response rating,[11]; [23],9
same,"Plant response rating, Giant foxtail",[11]; [24],0
same,Ducksalad plant response rating,[12]; [25],0
same,Ducksalad plant response rating,[12]; [26],0
same,Ducksalad plant response rating,[12]; [27],0
same,Ducksalad plant response rating,[12]; [28],0
same,Redroot pigweed plant response rating,[13]; [17],0
same,Redroot pigweed plant response rating,[13]; [18],0
same,Redroot pigweed plant response rating,[13]; [19],5
same,Redroot pigweed plant response rating,[13]; [20],0
same,Redroot pigweed plant response rating,[13]; [21],0
same,Redroot pigweed plant response rating,[13]; [22],0
same,Redroot pigweed plant response rating,[13]; [23],2
same,"Plant response rating, Redroot pigweed",[13]; [24],0
same,Morningglory plant response rating,[14]; [17],0
same,Morningglory plant response rating,[14]; [18],0
same,Morningglory plant response rating,[14]; [19],0
same,Morningglory plant response rating,[14]; [20],1
same,Morningglory plant response rating,[14]; [21],3
same,Morningglory plant response rating,[14]; [22],5
same,Morningglory plant response rating,[14]; [23],0
same,"Plant response rating, Morningglory",[14]; [24],5
same,Velvetleaf plant response rating,[15]; [17],0
same,Velvetleaf plant response rating,[15]; [18],0
same,Velvetleaf plant response rating,[15]; [19],3
same,Velvetleaf plant response rating,[15]; [21],0
same,Velvetleaf plant response rating,[15]; [22],0
same,Velvetleaf plant response rating,[15]; [23],2
same,"Plant response rating, Velvetleaf",[15]; [24],1
same,S. Flatsedge plant response rating,[16]; [25],0
same,S. Flatsedge plant response rating,[16]; [26],0
same,S. Flatsedge plant response rating,[16]; [27],0
same,S. Flatsedge plant response rating,[16]; [28],0
